Test [1] concerns human peripheral blood mononuclear cells (human PBMC). In words: TNFa inhibition in human PBMC monocytes (ELISA). The test is classed as cell-based. The following applies: TNFa concentration in culture medium by ELISA, HSA/anti-HSA antibody coated plate, overnight culture, read-out: hPBMC IC50. The protocol:
20 ug/ml of human serum albumin (HAS) solution was prepared and distributed in a 96-well plate (200 μl/well). Reaction was induced at 4° C. for overnight and then 10% FBS solution was treated thereto (200 μl/well), followed by elimination. Lastly, 10 ug/ml of anti-HSA antibody was treated thereto (200 μl/well) for 1 hour, followed by elimination. An appropriate number of monocytes of human peripheral blood mononuclear cells (human PBMC) were distributed in the prepared 96-well plate. The target compounds were treated thereto at different concentration via serial dilution method, followed by culture for overnight. IC50 values of the compounds were determined by confirming the TNFa inhibition activity of the compounds between the maximum concentration (positive control) and the minimum concentration (negative control) of TNFa, and the results are shown in Table 8.
For orientation: An ELISA detects its analyte on a solid surface through an enzyme-linked reagent.

In test [2] the target is Bruton's tyrosine kinase (BTK) (Homo sapiens (Human), UniProt Q06187). Briefly: BTK enzyme inhibition assay (Cisbio HTRF kit). The test is classed as biochemical. Particulars: 30 minutes reaction, fluorescence 665 nm/620 nm. The procedure:
BTK enzyme evaluation with each compound of examples of the invention was performed by using BTK enzyme inhibition diagnosis kit (Cisbio, Codolet, France). […] Then, EDTA (ethylenediaminetetraacetic acid) was added thereto in order to terminate the reaction. At this time, the EDTA solution contained curopium-containing antibody (antiphosphoresidue antibody) and straptavidin-XL665 (SA-XL665, Cisbio). After incubation for 1 hour, fluorescence was measured. The emission values of 665 nm and 620 nm excited at 337 nm were measured with Envision reader. IC50 values were determined using GraphPad prism (version 5). Herein, the curve indicates a nonlinear regression model, which was determined by logarithmic functions and reaction values.

The test system of test [3] is TMD8 cells. In words: TMD8 cell growth inhibition (WST-1, 72 hours). The test is classed as cell-based. Particulars: Homo sapiens, TMD8 ABC type DLBCL cell line, WST-1, absorbance 450 nm. The procedure: TDM-8 cells, the ABC (activated B-cell) type DLBCL (diffuse large B cell lymphoma) cell line sensitive to BTK signaling, were seeded in a 96-well plate at 30% confluency. Then, the compounds of the invention were treated thereto at different concentrations. 72 hours later, WST-1 reagent was added thereto. One hour later, absorbance was measured at 450 nm by using a spectramax spectrophotometer.
A general note: Tetrazolium dyes change colour on reduction, which living cells bring about.

In general, IC50 refers to the concentration needed to halve the response being measured.

Bruton's tyrosine kinase (BTK), sequence (Q06187 whole entry): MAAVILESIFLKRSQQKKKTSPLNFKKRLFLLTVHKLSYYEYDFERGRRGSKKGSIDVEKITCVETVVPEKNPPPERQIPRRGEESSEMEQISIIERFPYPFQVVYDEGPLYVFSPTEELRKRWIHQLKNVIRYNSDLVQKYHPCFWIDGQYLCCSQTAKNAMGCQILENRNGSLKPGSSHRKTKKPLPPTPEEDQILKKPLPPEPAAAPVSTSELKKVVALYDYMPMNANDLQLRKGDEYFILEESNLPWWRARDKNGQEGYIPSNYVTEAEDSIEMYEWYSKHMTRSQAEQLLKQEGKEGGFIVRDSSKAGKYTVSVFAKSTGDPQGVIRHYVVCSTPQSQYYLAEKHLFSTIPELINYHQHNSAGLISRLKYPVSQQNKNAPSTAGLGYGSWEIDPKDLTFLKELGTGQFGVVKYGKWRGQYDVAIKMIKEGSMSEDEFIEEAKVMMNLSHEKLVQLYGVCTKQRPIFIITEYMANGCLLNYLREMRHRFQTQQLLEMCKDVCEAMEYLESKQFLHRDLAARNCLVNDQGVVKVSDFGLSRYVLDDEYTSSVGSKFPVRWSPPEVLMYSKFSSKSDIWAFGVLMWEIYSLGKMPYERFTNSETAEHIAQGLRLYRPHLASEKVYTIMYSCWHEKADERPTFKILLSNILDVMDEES

Take `CC(=O)N1CCc2ccc(Nc3ncc4c(Nc5c(C)cccc5C)nn(C)c4n3)cc2C1` [Example 1, 1-(7-(3-(2,6-dimethylphenylamino)-1-methyl-1H-pyrazolo[3,4-d]pyrimidine-6-ylamino)-3,4-dihydroisoquinoline-2(1H)-yl)ethaneone]: the half-maximal inhibitory concentration (IC50) in test [1] turned out to be 35 nM; in test [2], 0.6 nM; in test [3], 41.1 nM.
Turning to `Cc1cccc(C)c1Nc1nn(C)c2nc(Nc3ccc4c(c3)CNCC4)ncc12` [Example 2, N^3-(2,6-dimethylphenyl)-1-methyl-N^6-(1,2,3,4-tetrahydroisoquinoline-7-yl)-1H-pyrazolo[3,4-d]pyrimidine-3,6-diamine], the IC50 in test [1] is 7.7 nM; in test [3], 30.1 nM.
As for `COc1cc2c(cc1Nc1ncc3c(Nc4c(C)cccc4C)nn(C)c3n1)CCNC2` [Example 4, N^1-(2,6-dimethylphenyl)-N^6-(7-methoxy-1,2,3,4-tetrahydroisoquinoline-6-yl)-1-methyl-1H-pyrazolo[3,4-d]pyrimidine-3,6-diamine], the IC50 in test [1] was 209 nM; in test [2], 100 nM; in test [3], 572 nM.
Taken in the same sequence, the figures for `Cc1cccc(C)c1Nc1nn(C)c2nc(Nc3ccc4c(c3)CCN(C(=O)C(F)(F)F)C4)ncc12` [Example 6, 1-(6-(3-(2,6-dimethylphenylamino)-1-methyl-1H-pyrazolo[3,4-d]pyrimidine-6-ylamino)-3,4-dihydroisoquinoline-2(1H)-yl)-2,2,2-trifluoroethaneone] were 113 nM, 10 nM and 159 nM.
The corresponding values for `Cc1cccc(C)c1Nc1nn(C)c2nc(Nc3ccc4c(c3)CCNC4)ncc12` [Example 7, N^3-(2,6-dimethylphenyl)-1-methyl-N^6-(1,2,3,4-tetrahydroisoquinoline-6-yl)-1H-pyrazolo[3,4-d]pyrimidine-3,6-diamine] are 20 nM, 0.8 nM and 46 nM.
Taken in the same sequence, the figures for `CC(=O)N1CCc2cc(Nc3ncc4c(Nc5c(C)cccc5C)nn(C)c4n3)ccc2C1` [Example 8, 1-(6-(3-(2,6-dimethylphenylamino)-1-methyl-1H-pyrazolo[3,4-d]pyrimidine-6-ylamino)-3,4-dihydroisoquinoline-2(1H)-yl)ethaneone] were 4.8 nM, 1 nM and 93 nM.
Take `Cn1nc(Nc2ccccc2)c2cnc(Nc3ccc4c(c3)CNCC4)nc21` [Example 10, 1-methyl-N^3-phenyl-N^6-(1,2,3,4-tetrahydroisoquinoline-7-yl)-1H-pyrazolo[3,4-d]pyrimidine-3,6-diamine]: the IC50 in test [1] came out at 202 nM.
With `Cn1nc(Nc2c(Cl)cccc2Cl)c2cnc(Nc3ccc4c(c3)CNCC4)nc21` [Example 12, N^3-(2,6-dichlorophenyl)-1-methyl-N^6 (1,2,3,4-tetrahydroisoquinoline-7-yl)-1H-pyrazolo[3,4-d]pyrimidine-3,6-diamine], the IC50 turned out to be 2.6 nM in test [1], 3.75 nM in test [2] and 89 nM in test [3].
The corresponding values for `CC(=O)N1CCc2ccc(Nc3ncc4c(Nc5c(Cl)cccc5Cl)nn(C)c4n3)cc2C1` [Example 13, 1-(7-(3-(2,6-dichlorophenylamino)-1-methyl-1H-pyrazolo[3,4-d]pyrimidine-6-ylamino)-3,4-dihydroisoquinoline-2(1H)-yl)ethaneone] are 5.5 nM, 3 nM and 118 nM.
The corresponding values for `C=CC(=O)N1CCc2ccc(Nc3ncc4c(Nc5c(C)cccc5C)nn(C)c4n3)cc2C1` [Example 14, 1-(7-(3-(2,6-dimethylphenylamino)-1-methyl-1H-pyrazolo[3,4-d]pyrimidine-6-ylamino)-3,4-dihydroisoquinoline-2(1H)-yl)prop-2-en-1-one] are 31 nM, 2 nM and 32 nM.
Regarding `Cn1nc(Nc2c(Cl)cccc2Cl)c2cnc(Nc3ccc4c(c3)CCNC4)nc21` [Example 15, N^3-(2,6-dichlorophenyl)-1-methyl-N^6-(1,2,3,4-tetrahydroisoquinoline-6-yl)-1H-pyrazolo[3,4-d]pyrimidine-3,6-diamine], the IC50 in test [1] worked out at 1.3 nM; in test [3], 41 nM.
Regarding `CC(=O)N1CCc2cc(Nc3ncc4c(Nc5c(Cl)cccc5Cl)nn(C)c4n3)ccc2C1` [Example 16, 1-(6-(3-(2,6-dichlorophenylamino)-1-methyl-1H-pyrazolo[3,4-d]pyrimidine-6-ylamino)-3,4-dihydroisoquinoline-2(1H)-yl)ethaneone], the IC50 in test [1] stood at 3.2 nM; in test [2], 3 nM; in test [3], 61 nM.
For `CC(=O)N1CCc2ccc(Nc3ncc4c(Nc5c(C)cccc5C)nn(C)c4n3)cc2C1C` (stereo not drawn) [Example 61, 1-(7-((3-((2,6-dimethylphenyl)amino)-1-methyl-1H-pyrazolo[3,4-d]pyrimidine-6-yl)amino)-1-methyl-3,4-dihydroisoquinoline-2(1H)-yl)ethane-1-one], the IC50 in test [2] turned out to be 1.03 nM; in test [3], 96.4 nM.
Taken in the same sequence, the figures for `Cc1cccc(C)c1Nc1nn(C)c2nc(Nc3ccc4c(c3)C(C)N(C)CC4)ncc12` (stereo not drawn) [Example 62, N6-(1,2-dimethyl-1,2,3,4-tetrahydroisoquinoline-7-yl)-N 3-(2,6-dimethylphenyl)-1-methyl-1H-pyrazolo[3,4-d]pyrimidine-3,6-diamine] were 1.21 nM and 27.9 nM.
For `Cc1cccc(C)c1Nc1nn(C)c2nc(Nc3ccc4c(c3)CN(C)CC4(C)C)ncc12` [Example 63, N3-(2,6-dimethylphenyl)-1-methyl-N 6-(2,4,4-trimethyl-1,2,3,4-tetrahydroisoquinoline-7-yl)-1H-pyrazolo[3,4-d]pyrimidine-3,6-diamine], the 50% inhibitory concentration (IC50) in test [2] turned out to be 2.13 nM; in test [3] it was 20.9 nM.
Turning to `Cc1ccc(NC(=O)c2cccc(C(F)(F)F)c2)cc1Nc1nn(C)c2nc(Nc3ccc4c(c3)C(C)N(C)CC4)ncc12` (stereo not drawn) [Example 64, N-(3-((6-((1,2-dimethyl-1,2,3,4-tetrahydroisoquinolin-7-yl)amino)-1-methyl-1H-pyrazolo[3,4-d]pyrimidine-3-yl)amino)-4-methylphenyl)-3-(trifluoromethyl)benzamide], the figures for the IC50 in test [2] and in test [3] were 5.22 nM and 10.1 nM, respectively.
Taken in the same sequence, the figures for `Cc1cccc(C)c1Nc1nn(C)c2nc(Nc3ccc4c(c3)C(C(C)C)N(C)CC4)ncc12` (stereo not drawn) [Example 65, N3-(2,6-dimethylphenyl)-N 6-(1-isopropyl-2-methyl-1,2,3,4-tetrahydroisoquinoline-7-yl)-1-methyl-1H-pyrazolo[3,4-d]pyrimidine-3,6-diamine] were 7.74 nM and 274 nM.

These data come from patent publication US11084824B2, “Pyrazolopyrimidine derivatives, preparation method thereof, and pharmaceutical composition for use in preventing or treating cancer, autoimmune disease and brain disease containing the same as an active ingredient” (Korea Research Institute of Chemical Technology, priority 2017, dated 2021).
